Experimental data reported in the NIST ThermoML archive (doi:10.1016/j.jct.2012.12.017).
Numbers after ± are expanded uncertainties.

Experiments:
[1] = 298.15 K; 101.33 kPa; Liquid; Vibrating tube method
[2] = refractive index (Na D-line) (dimensionless); details: 298.15 K; 101.33 kPa; Liquid; Abbe refractometer

| SMILES | mass density [1] [kg/m3] | refractive index [2] |
| --- | --- | --- |
| CCC[n+]1cccc(C)c1.O=S(=O)([N-]S(=O)(=O)C(F)(F)F)C(F)(F)F | 1447.94 ± 0.62 | 1.44485 ± 0.00033 |
| CC[n+]1cccc(C)c1.O=S(=O)([N-]S(=O)(=O)C(F)(F)F)C(F)(F)F | 1488.5 ± 0.66 | 1.44376 ± 0.00033 |

More lines, now with the values ahead:

| mass density [1] [kg/m3] | refractive index [2] | SMILES |
| --- | --- | --- |
| 785.2 ± 0.24 | 1.35936 ± 0.00033 | CCO [ethanol] |
| 679.57 ± 0.25 | 1.38529 ± 0.00033 | CCCCCCC [heptane] |
| 655.2 ± 0.25 | 1.37241 ± 0.00033 | CCCCCC [hexane] |
